Experimental data from PubChem BioAssay AID2060325 (Molecular Pharmacology Branch, DTP, NCI, 2025).
Where “and” joins values, the source holds several entries; their conditions need not be identical. Identical values can stand only once.

System: SK-OV-3 multi-cell spheroids, viability
Experiment: Anticancer human tumor SK-OV-3 cell line growth inhibition [IpAb];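 on viability, T/C: viability read after seven days of drug exposure; percent of DMSO vehicle control luminescence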
Settings: for viability, T/C: stronger effect = lower value
Excerpt: Combinatorial screen of targeted agents with ipatasertib and abemaciclib in multi-cell type tumor spheroids
A high-throughput screen of multi-cell type tumor spheroids was designed to identify active combinations of targeted small molecules and ipatasertib or abemaciclib. Complex spheroids include a stromal component modeled by human endothelial cells (HUVEC) and fibroblasts modeled by human mesenchymal stem cells (MSCs). The concentration ranges selected for each drug and investigational agent were based upon clinically achievable concentrations if the clinical Cmax of the agent was known.
Compounds. The drugs and investigational agents: ipatasertib (NSC767898), abemaciclib(NSC768073), selumetinib (NSC741078), trametinib (758246), adavosertib (NSC754352), everolimus (NSC733504), sapanisertib (NSC764658), vemurafenib (NSC761431), venetoclax (NSC766270), copanlisib (NSC809693), apelisib (NSC765974), palbociblib (NSC758247), vemurafenib (NSC761431), dabrafenib (NSC764134), ravoxertinib (NSC781343), BMS-387032 (NSC767048), sotorasib (NSC818433), talazoparib (NSC767125) and afursertib (NSC778305), were obtained from the National Cancer Institute (NCI) Developmental Therapeutics Program Chemical Repository. The FDA-approved anticancer drug set is available from the NCI Developmental Therapeutics Program. […] The stock solutions were prepared in dimethyl sulfoxide (DMSO, Sigma-Aldrich, St. Louis, MO, cat. D2650) at 800-fold the tested concentration and stored at -70 degrees C prior to their use. All drugs and investigational agents were tested over a range starting from a high concentration at or near the clinical Cmax and decreasing in half-log increments. If the clinical Cmax for an agent had not been determined, the highest concentration tested was 10 microM.
NCI60 Cell Culture. NCI60 cell lines were obtained from the NCI Developmental Therapeutics Program Tumor Repository. For each lot of cells, the Repository performed Applied Biosystems AmpFLSTR Identifiler testing with PCR amplification to confirm consistency with the published Identifier STR profile for each cell line. Cells were kept in continuous culture for no more than 20 passages. The optimal seeding densities for each of the cell lines at each time point assessed were determined prior to performing the concentration response studies. Briefly, the NCI60 human tumor lines were grown as monolayers in RPMI 1640 medium supplemented with 10% FBS and 2 mmol/L L-glutamine.
An additional 9 lines were from the NCI60 cell line panel including MDA-MB-231 breast carcinoma, MDA-MB-468 breast carcinoma, MCF7 breast carcinoma, Hs578T breast carcinoma, MALME-3M melanoma, SK-MEL-2 melanoma, SK-OV-3 ovarian carcinoma, DU-145 prostate carcinoma, PC-3 prostate carcinoma, all cell lines along with major genetic alterations are listed on Table 2. Pooled donor human umbilical vein endothelial cells (HUVEC, Lonza, cat. CC-2519) and human mesenchymal stem cells (hMSC, Lonza, cat. PT-2501) were purchased from Lonza (Walkersville, MD).
PDMR cell lines were grown in complete medium (DC medium): Dulbecco's modified Eagle's medium (DMEM)/F12 supplemented with 5% fetal bovine serum (FBS), 2 mM L-glutamine, 100 U/mL penicillin and 100 µg/ml streptomycin, 0.4 µg/ml hydrocortisone, 10 ng/ml epidermal growth factor (EGF) recombinant human protein, 24 µg/mL adenine, and 0.1 mg/mL primocin. During culture from frozen stock vials, PDMR cells were cultured in the same medium containing 10 µM Y-27632 (see Table 3). The PDCs were cultured in complete DMEM/F12 media without 10 microM Y-27632 dihydrochloride for at least two passages prior to the screen. The pooled donor HUVEC and hMSC were cultured in endothelial cell growth medium 2 (PromoCell, Heidelberg, Germany, cat. C-22011) and mesenchymal stem cell growth medium 2 (PromoCell, cat. C-28009), respectively. For all experiments, HUVEC and hMSC were used at passages </=5.
[…]

IC50 (curve of compound)	Compound	viability, T/C (compound 0.0316 µM)	viability, T/C (compound 0.1 µM)	viability, T/C (compound 0.316 µM)	viability, T/C (compound 1 µM)	viability, T/C (compound 3.16 µM)	viability, T/C (compound 10 µM)	viability, T/C (compound 0.01 µM)	other results
139 nM and 128 nM	C=CCn1c(=O)c2cnc(Nc3ccc(N4CCN(C)CC4)cc3)nc2n1-c1cccc(C(C)(C)O)n1	89.6% and 97.2%	64.6% and 59.2%	13.3% and 15.5%	8.1% and 7.49%	4.13% and 4.87%	6.98% and 5.63%	–	–
> 300 nM and 253 nM	CC(=O)c1c(C)c2cnc(Nc3ccc(N4CCNCC4)cn3)nc2n(C2CCCC2)c1=O	–	–	–	–	–	–	–	viability, T/C (compound 0.000949 µM): 95.2% and 104%; viability, T/C (compound 0.003 µM): 88.7% and 83.4%; viability, T/C (compound 0.00949 µM): 75.1% and 80.8%; viability, T/C (compound 0.03 µM): 60.9% and 56.5%; viability, T/C (compound 0.0949 µM): 56.6% and 55%; viability, T/C (compound 0.3 µM): 54.1% and 49.9%
8.71 nM and 9.06 nM	COc1c(OCCCN2CCOCC2)ccc2c3n(c(=NC(=O)c4cnc(N)nc4)nc12)CCN3	11.5% and 12.2%	7.4% and 8.86%	6.39% and 5.98%	4.6% and 3.86%	–	–	44.2% and 46.4%	viability, T/C (compound 0.00316 µM): 92.7% and 89.1%

More lines, now with the values behind:

Compound	IC50 (curve of compound)	viability, T/C (compound 0.0316 µM)	viability, T/C (compound 0.1 µM)	viability, T/C (compound 0.316 µM)	viability, T/C (compound 1 µM)	viability, T/C (compound 3.16 µM)	viability, T/C (compound 10 µM)	viability, T/C (compound 0.01 µM)	other results
C=CC(=O)N1CCN(c2nc(=O)n(-c3c(C)ccnc3C(C)C)c3nc(-c4c(O)cccc4F)c(F)cc23)C(C)C1 (configuration not stated)	> 10000 nM	100% and 104%	107% and 105%	111% and 117%	115% and 130%	125% and 120%	77.3% and 82.5%	–	–
CC(C)(C)c1cnc(CSc2cnc(NC(=O)C3CCNCC3)s2)o1	189 nM and 212 nM	–	–	–	–	–	–	–	viability, T/C (compound 0.00949 µM): 111% and 106%; viability, T/C (compound 0.03 µM): 119% and 113%; viability, T/C (compound 0.0949 µM): 120% and 117%; viability, T/C (compound 0.3 µM): 14.5% and 23.1%; viability, T/C (compound 0.949 µM): 0.98% and 1.33%; viability, T/C (compound 3 µM): 0.95% and 1.2%
CC(C)NCC(C(=O)N1CCN(c2ncnc3c2C(C)CC3O)CC1)c1ccc(Cl)cc1 (configuration not stated)	–	–	69% [middle of 13 runs]	37.8% [middle of 13 runs]	21.5% [middle of 13 runs]	15.8% [middle of 13 runs]	10.5% [middle of 12 runs]	–	IC50 (compound alone, run of 05/18/2021): 202 nM [middle of 13 runs]
CC(C)n1nc(-c2ccc3oc(N)nc3c2)c2c(N)ncnc21	2.13 nM and 2.54 nM	10.8% and 11.2%	7.02% and 7.25%	–	–	–	–	19.2% and 21.4%	viability, T/C (compound 0.000316 µM): 90.3% and 86.6%; viability, T/C (compound 0.001 µM): 71.8% and 76.2%; viability, T/C (compound 0.00316 µM): 37.6% and 42.3%
CC1(C)CCC(CN2CCN(c3ccc(C(=O)NS(=O)(=O)c4ccc(NCC5CCOCC5)c([N+](=O)[O-])c4)c(Oc4cnc5[nH]ccc5c4)c3)CC2)=C(c2ccc(Cl)cc2)C1	4560 nM and 4020 nM	108% and 100%	105% and 103%	104% and 112%	96.4% and 94.5%	61.8% and 62.1%	24.5% and 5.23%	–	–
CCCS(=O)(=O)Nc1ccc(F)c(C(=O)c2c[nH]c3ncc(-c4ccc(Cl)cc4)cc23)c1F	7130 nM and 9740 nM	116% and 100%	101% and 100%	108%	102% and 108%	89.4% and 88.4%	33.9% and 49.1%	–	–
CCN1CCN(Cc2ccc(Nc3ncc(F)c(-c4cc(F)c5nc(C)n(C(C)C)c5c4)n3)nc2)CC1	–	71.2% [middle of 13 runs]	54.8% [middle of 13 runs]	53.6% [middle of 13 runs]	43.7% [middle of 13 runs]	–	–	87.1% [middle of 13 runs]	–
